Assays:
[1] = tested on: A3T3 (DNA, duplex) CGCGAAATTTCGCG; test: ITC; details: Na+ (10 mM sodium phosphate, 10 mM NaCl); buffer A pH 7.5, 25 °C; TC into 40 μM A3T3; single site model
[2] = tested on: (AT)2 (DNA, duplex) CGCGATATCGCG; test: absorption and fluorescence titration; details: Na+ (10 mM sodium phosphate, 10 mM NaCl); buffer A pH 7.5, 25 °C; minor groove at 1:1, intercalation at low [DNA]/[TC]
[3] = tested on: t-(AT)2 (DNA, duplex) ATATCGCGATAT; test: absorption and fluorescence titration; details: Na+ (10 mM sodium phosphate, 10 mM NaCl); buffer A pH 7.5, 25 °C; mixed intercalation and incomplete groove binding
[4] = tested on: AT (DNA, duplex) CGCGATCGCG; test: absorption and fluorescence titration; details: Na+ (10 mM sodium phosphate, 10 mM NaCl); buffer A pH 7.5, 25 °C; mixed intercalation and incomplete groove binding
[5] = tested on: CG (DNA, duplex) CGCGCGCGCGCG; test: absorption titration, NMR line broadening; details: Na+ (10 mM sodium phosphate, 10 mM NaCl); buffer A pH 7.5, 25 °C; intercalation only, almost no fluorescence enhancement
[6] = tested on: A2T2 (DNA, duplex) CGCGAATTCGCG; test: absorption, fluorescence and NMR titration; details: Na+ (10 mM sodium phosphate, 10 mM NaCl); buffer A pH 7.5, 25 °C; minor groove at 1:1, intercalation at low [DNA]/[TC]

CCN(CC)c1ccc2cc(/C=C/c3sc4ccccc4[n+]3C)c(=O)oc2c1
Kd [1]: 2900 nM | binding [2]: yes | binding [3]: yes | binding [4]: yes | binding [5]: yes | binding [6]: yes

Reference: publication PMC7497988 (2020)
